Measurements as given in US20220061324A1, “PESTICIDALLY ACTIVE HETEROCYCLIC DERIVATIVES WITH SULFUR CONTAINING SUBSTITUENTS” (SYNGENTA CROP PROTECTION AG, priority 2018, published 2022).

What was measured:
[1] = system: Euschistus heros (Neotropical Brown Stink Bug); test: Activity against Euschistus heros (neotropical brown stink bug), soybean leaves sprayed; type: in vivo; settings: 120 h, application rate 200 ppm, N2 nymphs, 5 days after infestation, read-out: effect in at least one of the two categories (mortality or growth inhibition)
Experimental: Example B2: Activity Against Euschistus heros (Neotropical Brown Stink Bug)
Soybean leaves on agar in 24-well microtiter plates were sprayed with aqueous test solutions prepared from 10,000 ppm DMSO stock solutions. After drying the leaves were infested with N2 nymphs. The samples were assessed for mortality and growth inhibition in comparison to untreated samples 5 days after infestation.

[2] = system: Plutella xylostella (Diamond Back Moth); test: Activity against Plutella xylostella (diamond back moth), artificial diet; type: in vivo; settings: 192 h, application rate 200 ppm, eggs, 8 days after infestation, read-out: effect in at least one of the two categories (mortality or growth inhibition)
[3] = system: Frankliniella occidentalis (Western Flower Thrips); test: Activity against Frankliniella occidentalis (western flower thrips), sunflower leaf discs; type: in vivo; settings: foliar, 168 h, application rate 200 ppm, mixed ages, 7 days after infestation
Experimental: Example B7: Activity Against Frankliniella occidentalis (Western Flower Thrips)
Sunflower leaf discs were placed on agar in 24-well microtiter plates and sprayed with aqueous test solutions prepared from 10,000 DMSO stock solutions. After drying the leaf discs were infested with a Frankliniella population of mixed ages. The samples were assessed for mortality 7 days after infestation.

[4] = system: Spodoptera littoralis (Egyptian Cotton Leaf Worm); test: Activity against Spodoptera littoralis (Egyptian cotton leaf worm), cotton leaf discs; type: in vivo; settings: foliar, 72 h, application rate 200 ppm, L1 larvae, 3 days after infestation, read-out: control (mortality, anti-feedant effect or growth inhibition)
[5] = system: Diabrotica balteata (Corn Root Worm); test: Activity against Diabrotica balteata (corn root worm), maize sprouts sprayed; type: in vivo; settings: 96 h, application rate 200 ppm, L2 larvae, 4 days after infestation, read-out: effect in at least one of the two categories (mortality or growth inhibition)
Experimental: Example B1: Activity Against Diabrotica balteata (Corn Root Worm)
Maize sprouts placed onto an agar layer in 24-well microtiter plates were treated with aqueous test solutions prepared from 10,000 ppm DMSO stock solutions by spraying. After drying, the plates were infested with L2 larvae (6 to 10 per well). The samples were assessed for mortality and growth inhibition in comparison to untreated samples 4 days after infestation.

[6] = system: Myzus persicae (Green Peach Aphid); test: Activity against Myzus persicae (green peach aphid), feeding/contact activity; type: in vivo; settings: 144 h, application rate 200 ppm, feeding/contact, mixed ages, 6 days after infestation, read-out: mortality
Experimental: Example B4: Activity Against Myzus persicae (Green Peach Aphid) Feeding/Contact Activity
Sunflower leaf discs were placed onto agar in a 24-well microtiter plate and sprayed with aqueous test solutions prepared from 10,000 ppm DMSO stock solutions. After drying, the leaf discs were infested with an aphid population of mixed ages. The samples were assessed for mortality 6 days after infestation.

[7] = system: Bemisia tabaci (Cotton White Fly); test: Activity against Bemisia tabaci (cotton white fly), cotton leaf discs; type: in vivo; settings: foliar, 144 h, application rate 200 ppm, adult white flies, 6 days after incubation
Experimental: Example B6: Activity Against Bemisia tabaci (Cotton White Fly)
Cotton leaf discs were placed on agar in 24-well microtiter plates and sprayed with aqueous test solutions prepared from 10,000 ppm DMSO stock solutions. After drying the leaf discs were infested with adult white flies. The samples were checked for mortality 6 days after incubation.

[8] = system: Myzus persicae (Green Peach Aphid); test: Activity against Myzus persicae (green peach aphid), systemic activity, pea seedlings; type: in vivo; settings: 144 h, test rate 24 ppm, roots in test solution, 6 days
Experimental: Example B8: Activity Against Myzus persicae (Green Peach Aphid) Systemic Activity
Roots of pea seedlings infested with an aphid population of mixed ages were placed directly into aqueous test solutions prepared from 10,000 DMSO stock solutions. The samples were assessed for mortality 6 days after placing seedlings into test solutions.

melting point	Compound	percent effect (mortality or growth inhibition) at 200 ppm [1]	percent effect (mortality or growth inhibition) at 200 ppm [2]	mortality at 200 ppm [3]	percent control (mortality, anti-feedant effect or growth inhibition) at 200 ppm [4]	percent effect (mortality or growth inhibition) at 200 ppm [5]	mortality at 200 ppm [6]	mortality at 200 ppm [7]	mortality at 24 ppm [8]
140 to 143 °C	CCS(=O)(=O)c1ccc(Cl)nc1-c1ncc2c(OCC(F)(F)C(F)(F)F)nccn12	–	–	–	–	–	–	–	–
–	CCS(=O)(=O)c1cc(OC(C)(C)C#N)cnc1-c1ncc2c(OCC(F)(F)C(F)(F)F)nccn12 [Compound P51, 2-[[5-ethylsulfonyl-6-[8-(2,2,3,3,3-pentafluoropropoxy)imidazo [1,5-a]pyrazin-3-yl]-3-pyridyl]oxy]-2-methyl-propanenitrile]	≥ 80%	≥ 80%	≥ 80%	≥ 80%	≥ 80%	≥ 80%	≥ 80%	–
–	CCS(=O)(=O)c1cc(N(C)C(C)=O)cnc1-c1ncc2c(OCC(F)(F)C(F)(F)F)nccn12 [Compound P13, N-[5-ethylsulfonyl-6-[8-(2,2,3,3,3-penta-fluoropropoxy)imidazo [1,5-a]pyrazin-3-yl]-3-pyridyl]-N-methyl-acetamide]	≥ 80%	≥ 80%	–	≥ 80%	≥ 80%	≥ 80%	–	≥ 80%
–	CCS(=N)(=O)c1cc(OC(C)(C)C#N)cnc1-c1ncc2c(OCC(F)(F)C(F)(F)F)nccn12 (stereo not shown) [Compound P52, 2-[[5-(ethylsulfonimidoyl)-6-[8-(2,2,3,3,3-penta-fluoropropoxy)imidazo [1,5-a]pyrazin-3-yl]-3-pyridyl]oxy]-2-methyl-propanenitrile]	–	≥ 80%	–	≥ 80%	≥ 80%	≥ 80%	≥ 80%	–
–	CCS(=O)(=O)c1ccc(-n2cncn2)nc1-c1ncc2c(OCC(F)(F)C(F)(F)F)nccn12 [Compound P12, 3-[3-ethylsulfonyl-6-(1,2,4-triazol-1-yl)-2-pyridyl]-8-(2,2,3,3,3-penta-fluoropropoxy)imidazo [1,5-a]pyrazine]	≥ 80%	≥ 80%	–	≥ 80%	≥ 80%	≥ 80%	≥ 80%	–
